Counter-ions that a name gives are not always drawn.
Legend:
[1] = system: QT interval; assay: class III antiarrhythmic action in guinea-pigs after intravenous administration (increase in QT interval, ECG); format: in vivo, guinea-pigs (Pirbright white); conditions: i.v.; for Rel. action ED20 (D-sotalol)/ED20 (example): guinea-pigs, potency relative to D-sotalol = 1; for ED20: Cavia porcellus, iv, read-out: Increase in QT interval ED 20%
Procedure: The experimental animals are male and female Pirbright white guinea-pigs weighing from 300 to 500 g. They are anaesthetized with 1.5 g/kg urethane i.p. The substances are administered intravenously. The ECG conduction times and the heart rate are measured from a recording from extremity lead II. […] The criterion of a class III action is an increase in the QT interval compared with the values before administration of the substance. An increase in PQ and a large decrease in the heart rate serve as exclusion criteria.

[2] = system: arrhythmias which are otherwise resistant to therapy, especially reentry arrhythmias; conditions: Circulation 68 (1983); Am. Heart J. 109 (1985); J. Clin. Pharmacol. 27 (1987); cited from earlier work
[3] = anaesthetized guinea-pigs (urethane 1.5 g/kg i.p.), ECG extremity lead II, 4 to 6 animals per dose, dose for 20% increase in QT interval, calculated from log dose-response

Row | Compound | Increase in QT interval ED 20% [1, 3] [mg/kg] | Rel. action ED20 (D-sotalol)/ED20 (example) [1] | ED20 [1, 3] [mg/kg] | therapeutic advantage of class III antiarrhythmics reported in the literature [2]
1 | 3',4'-Dimethyl-4'-(2-(1-pyrrolidinyl)ethoxy)-4-methoxychalcone fumarate [Example 24] | 0.95 | 3.8 | – | –
2 | CC(C)NCC(O)c1ccc(NS(C)(=O)=O)cc1 (single isomer, unassigned) [D-sotalol, reference compound] | – | – | 3.6 | acting against arrhythmias which are otherwise resistant to therapy
3 | Cc1ccccc1/C=C/C(=O)c1cc(C)c(OCCN2CCCC2)c(C)c1 [Example 1, 3',5'-Dimethyl-4,-(2-(1-pyrrolidinyl)ethoxy)-2-methylchalcone tosylate] | – | 4.9 | 0.74 | –
4 | Cc1ccccc1/C=C/C(=O)c1cc(C)c(OCCN2CCCCC2)c(C)c1.O=C(O)/C=C/C(=O)O [Example 2, 3',5'-Dimethyl-4'-(2-(1-piperidinyl)ethoxy)-2-methylchalcone fumarate] | – | 4.7 | 0.76 | –
5 | CCN(CC)CCOc1c(C)cc(C(=O)/C=C/c2ccccc2C)cc1C.O=C(O)/C=C/C(=O)O [Example 3, 4'-(2-Diethylaminoethoxy)-3',5'-dimethyl-2-methylchalcone fumarate] | – | 5.5 | 0.65 | –
6 | Cc1ccccc1/C=C/C(=O)c1cc(C)c(OCCCN2CCCC2)c(C)c1.O=C(O)/C=C/C(=O)O [Example 4, 3',5'-Dimethyl-4'-(3-(1-pyrrolidinyl)propoxy)-2-methylchalcon fumarate] | – | 4.0 | 0.89 | –
7 | CCN(CC)CCOc1c(C)cc(C(=O)Cc2ccc(OC)cc2)cc1C [Example 10, 4'-(2-Diethylaminoethoxy)-3',5'-dimethyl-4-methoxydeoxybenzoin] | – | 2.7 | 1.31 | –
8 | CCc1ccccc1C=CC(=O)c1cc(C)c(OCCN2CCCC2)c(C)c1 [Example 12, 3',5'-Dimethyl-4,-(2-(1-pyrrolidinyl)ethoxy)-2-ethylchalcone fumarate] | – | 4.9 | 0.74 | –
9 | COc1ccccc1/C=C/C(=O)c1cc(C)c(OCCN2CCCC2)c(C)c1.O=C(O)/C=C/C(=O)O [Example 13, 3',5'-Dimethyl-4'-(2-(1-pyrrolidinyl)ethoxy)-2-methoxychalcone fumarate] | – | 5.4 | 0.67 | –
10 | COc1ccc(C=CC(=O)c2cc(C)c(OCCN3CCCC3)c(C)c2)c(C)c1 [Example 15, 3',5'-Dimethyl-4'-(2-(1-pyrrolidinyl)ethoxy)-4-methoxy-2-methylchalconeoxalate] | – | 2.4 | 1.5 | –
11 | COc1ccccc1/C=C/C(=O)c1cc(C)c(OCCN2CCCCC2)c(C)c1.Cl [Example 17, 3',5'-Dimethyl-4'-(2-(1-piperidinyl)ethoxy)-2-methoxychalcone hydrochloride] | – | 2.1 | 1.69 | –
12 | CCc1ccccc1C=CC(=O)c1cc(C)c(OCCN2CCOCC2)c(C)c1 [Example 18, 3',5'-Dimethyl-4'-(2-(1-morpholinyl)ethoxy)-2-ethylchalcone hydrochloride] | – | 2.4 | 1.5 | –
13 | COc1ccc(/C=C/C(=O)c2cc(C)c(OCCN3CCCCC3)c(C)c2)c(C)c1.O=C(O)/C=C/C(=O)O [Example 20, 3',5'-Dimethyl-4'-(2-(1-piperidinyl)ethoxy)-4-methoxy-2-methylchalcone fumarate] | – | 4.9 | 0.73 | –
14 | Cc1ccccc1CCC(=O)c1cc(C)c(OCCN2CCCC2)c(C)c1 [Example 25, 3,5-Dimethyl-4-(2-(1-pyrrolidinyl)ethoxy)-3'-(2-tolyl)-propiophenone fumarate] | – | 4.6 | 0.79 | –
15 | COc1ccccc1CCC(=O)c1cc(C)c(OCCN2CCCCC2)c(C)c1 [Example 27, 3,5-Dimethyl-3'-(2-methoxyphenyl)-4-(2-(piperidinyl)ethoxy)propiophenone fumarate] | – | 3 | 1.2 | –
16 | CCc1ccccc1CCC(=O)c1cc(C)c(OCCN2CCCCC2)c(C)c1 [Example 32, 3,5-Dimethyl-3'-(2-ethylphenyl)-4-(2-(1-piperidinyl)ethoxy)propiophenone f umarate] | – | 2.2 | 1.62 | –
17 | CCCCc1oc2ccccc2c1C(=O)c1cc(I)c(OCCN(CC)CC)c(I)c1 [amiodarone] | – | – | – | acting against arrhythmias which are otherwise resistant to therapy
